Laboratory results from US20250154597A1, “TRANSCRIPTIONAL REPROGRAMMING DIFFERENTIATES ACTIVE FROM INACTIVE ESR1 FUSIONS IN ENDOCRINE THERAPY-REFRACTORY METASTATIC BREAST CANCER” (Baylor College of Medicine, priority 2021, published 2025).
One block for each molecule: values may come before it.

How the values were obtained:
WT ERα protein = target: T1, WT ERα protein (Homo sapiens, UniProt P03372); test: Immunoblotting of endogenous WT ERα after fulvestrant treatment; assay type: cell-based; settings: 100 nM fulvestrant; hormone-deprived stable T47D and MCF7 cells
T1 sequence (P03372 1-595): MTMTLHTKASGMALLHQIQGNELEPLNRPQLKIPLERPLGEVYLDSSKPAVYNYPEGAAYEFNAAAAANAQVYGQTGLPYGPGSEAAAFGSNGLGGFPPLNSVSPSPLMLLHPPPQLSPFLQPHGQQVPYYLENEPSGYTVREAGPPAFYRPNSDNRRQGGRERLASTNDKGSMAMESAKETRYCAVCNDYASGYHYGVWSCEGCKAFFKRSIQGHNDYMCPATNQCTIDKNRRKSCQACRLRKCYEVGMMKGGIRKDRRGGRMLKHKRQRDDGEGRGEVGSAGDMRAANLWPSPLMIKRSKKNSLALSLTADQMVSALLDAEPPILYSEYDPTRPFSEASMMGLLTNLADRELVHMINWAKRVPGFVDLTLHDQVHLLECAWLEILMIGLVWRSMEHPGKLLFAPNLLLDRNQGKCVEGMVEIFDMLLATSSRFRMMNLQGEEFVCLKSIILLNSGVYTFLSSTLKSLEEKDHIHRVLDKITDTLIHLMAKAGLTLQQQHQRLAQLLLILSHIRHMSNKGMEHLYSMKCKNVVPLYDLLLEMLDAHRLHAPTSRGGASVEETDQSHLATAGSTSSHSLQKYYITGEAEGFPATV

[1] = system: T47D cells expressing active ESR1 fusion proteins; test: Expression of estrogen response and EMT-related genes (RT-qPCR, immunoblotting); assay type: cell-based; settings: 100 nM fulvestrant; E2-deprived T47D cells
Protocol: (§1) Immunoblotting and immunoprecipitation—Cells were harvested and whole cell lysates were prepared in RIPA lysis buffer as described (7) or in MIB lysis buffer (10) supplemented with 1× protease inhibitors and 1× phosphatase inhibitors (Roche) by sonication for 2 minutes. To make ER+ PDX tumor lysates, frozen PDX tumors were cryopulverized with a Covaris CP02 Pulverizer and then protein was extracted in MIB lysis buffer with sonication. Protein concentration determination and SDS-PAGE ([…] protein per lane) were performed as described (7). Immunoblotting of nitrocellulose membranes was performed as described (7). Primary and HRP-conjugated secondary antibodies employed are listed in the Supplementary information.
Reverse transcription-quantitative PCR (RT-qPCR)—RNA was isolated from hormone-deprived stable T47D cells as above with concentration determined using a NanoDrop spectrophotometer. […]
To define the transcriptional profile driven by active ESR1 fusion proteins, RNA-Seq was performed on T47D cells expressing these ESR1 fusion cDNAs as well as control (YFP, ESR1-e6, and ESR1-WT) cells in the presence and absence of E2. […] The expression of three canonical estrogen response genes in stably transfected T47D cells were validated using reverse transcription-quantitative PCR (RT-qPCR). […]

ESR1 fusion protein = test: Immunoblotting of ESR1 fusion proteins after fulvestrant treatment; assay type: cell-based; settings: 100 nM fulvestrant; hormone-deprived stable T47D and MCF7 cells
Protocol: as §1
(§2) To characterize each chimeric ESR1 fusion protein, HA-tagged cDNA constructs were expressed in two ER+ breast cancer cell lines (T47D and MCF7) by lentiviral transduction. Stable cell lines expressing yellow fluorescent protein (YFP) were generated as negative controls. Truncated ESR1 (ESR1-e6 protein) and wild-type ESR1 (ESR1-WT protein) were also stably expressed to provide over-expression controls (FIGS. 2A and 2D). When cells were treated with 100 nM fulvestrant, a selective ERα degrader that inhibits endogenous ERα (21), the level of ESR1 fusion protein was predictably unaffected. […] Cell growth was measured using an alamarBlue assay. […]

T47D cells = test: Cell growth, alamarBlue assay; assay type: cell-based; settings: 100 nM fulvestrant, 7-10 days
Protocol: Cell growth, motility and invasion assays—Cell growth assays of different ESR1 fusion protein expressing breast cancer cells that were first hormone-deprived and then subsequently treated either with 100 nM fulvestrant in the presence or absence of 10 nM E2 for 7-10 days were performed in 96-well plates using an alamarBlue™ assay as described (7). Cell growth reading values were normalized to that of control YFP cells, −E2.
as §2, with “unaffected. In comparison, the WT ERα protein was reliably degraded, providing an endogenous control for fulvestrant activity (FIGS. 2A and 2D).” for “unaffected.”

[2] = target: T2, ESR1-e6>SOX9 fusion protein, HA-tagged (UniProt P03372 1-365; P48436 229-509, limits assumed); test: co-immunoprecipitation: anti-HA IP from hormone-deprived T47D cell lysates with or without 100 nM E2, blot with C-terminal ERα antibody
T2 construct: Stably expressed in T47D cells by lentiviral transduction; not shown: HA tag (constructed in a similar fashion to the C-terminal HA-tagged constructs)
T2 sequence (looked up): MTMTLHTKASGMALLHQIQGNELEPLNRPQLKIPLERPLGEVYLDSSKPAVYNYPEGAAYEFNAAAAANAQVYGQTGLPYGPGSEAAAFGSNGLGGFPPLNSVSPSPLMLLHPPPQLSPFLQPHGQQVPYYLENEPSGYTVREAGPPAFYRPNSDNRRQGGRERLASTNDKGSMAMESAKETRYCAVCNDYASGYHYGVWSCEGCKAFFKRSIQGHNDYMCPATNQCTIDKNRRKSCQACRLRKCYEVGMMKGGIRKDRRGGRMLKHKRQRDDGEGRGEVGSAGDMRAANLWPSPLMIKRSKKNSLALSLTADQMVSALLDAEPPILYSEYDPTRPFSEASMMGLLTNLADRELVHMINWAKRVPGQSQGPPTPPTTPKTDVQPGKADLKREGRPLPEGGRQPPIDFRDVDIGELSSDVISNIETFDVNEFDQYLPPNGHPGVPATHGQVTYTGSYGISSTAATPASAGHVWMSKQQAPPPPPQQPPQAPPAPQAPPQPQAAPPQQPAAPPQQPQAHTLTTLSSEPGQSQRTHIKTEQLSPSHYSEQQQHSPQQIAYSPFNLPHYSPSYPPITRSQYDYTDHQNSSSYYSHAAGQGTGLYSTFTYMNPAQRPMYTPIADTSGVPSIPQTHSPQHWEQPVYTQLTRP

[3] = target: T3, ESR1-e6>PCDH11X fusion protein, C-terminal HA-tagged (UniProt P03372 1-365; Q9BZA7 1013-1347, limits assumed); test: as above
T3 construct: Stably expressed in T47D cells by lentiviral transduction; not shown: C-terminal HA tag
T3 sequence (looked up): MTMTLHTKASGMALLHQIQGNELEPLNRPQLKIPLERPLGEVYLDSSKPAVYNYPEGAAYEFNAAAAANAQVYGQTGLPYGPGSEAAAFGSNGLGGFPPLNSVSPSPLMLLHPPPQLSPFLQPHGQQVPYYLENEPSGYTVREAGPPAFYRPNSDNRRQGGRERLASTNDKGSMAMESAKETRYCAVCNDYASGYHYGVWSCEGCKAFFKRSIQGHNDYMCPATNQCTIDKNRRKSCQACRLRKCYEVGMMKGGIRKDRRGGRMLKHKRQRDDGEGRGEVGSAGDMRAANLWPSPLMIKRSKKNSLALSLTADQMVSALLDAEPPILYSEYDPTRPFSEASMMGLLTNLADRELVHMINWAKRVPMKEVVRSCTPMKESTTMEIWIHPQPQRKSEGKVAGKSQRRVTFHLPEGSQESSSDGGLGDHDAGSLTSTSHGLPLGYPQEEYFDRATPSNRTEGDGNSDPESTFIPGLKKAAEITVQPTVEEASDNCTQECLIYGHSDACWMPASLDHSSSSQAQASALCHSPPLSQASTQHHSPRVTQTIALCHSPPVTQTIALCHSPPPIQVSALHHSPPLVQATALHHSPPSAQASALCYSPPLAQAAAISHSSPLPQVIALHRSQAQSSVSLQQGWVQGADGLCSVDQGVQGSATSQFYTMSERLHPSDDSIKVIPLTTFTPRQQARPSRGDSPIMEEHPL

[4] = target: T4, ESR1-e6>YAP1 fusion protein, C-terminal HA-tagged (UniProt P03372 1-365; P46937 230-504, limits assumed); test: as above
T4 construct: Stably expressed in T47D cells by lentiviral transduction; also called ESR1-YAP1; not shown: C-terminal HA tag

- level of WT ERα protein (WT ERα protein): degraded
Molecule: C[C@]12CC[C@@H]3c4ccc(O)cc4C[C@@H](CCCCCCCCC[S+]([O-])CCCC(F)(F)C(F)(F)F)[C@H]3[C@@H]1CC[C@@H]2O (stereo partly shown) [fulvestrant]
- expression of estrogen response and EMT-related genes induced by active ESR1 fusion proteins [1]: unaffected
- level of ESR1 fusion protein (ESR1 fusion protein): unaffected
- E2-independent growth of T47D cells expressing ESR1-e6>YAP1, >PCDH11X, >SOX9, >ARNT2-e18 (T47D cells): uniformly resistant to fulvestrant

- binding result [2]: no binding
- binding result [3]: no binding
- binding result [4]: no binding
B1: endogenously expressed ERα (wild-type estrogen receptor alpha, encoded by ESR1) (receptor, UniProt P03372 1-595, looked up)
chain: T1 sequence (P03372 1-595)
notes: also called WT ERα; endogenous ERα
